In PMC6599804, “N^ɛ-acetyl lysine derivatives with zinc binding groups as novel HDAC inhibitors” (Royal Society Open Science, 2019):

Legend:
[1] = test system: HDACs (HeLa nuclear extract); test: HDAC deacetylation inhibition assay, HeLa nuclear extract with BOC-Ac-Lys-AMC substrate; type: biochemical, human; conditions: BOC-Ac-Lys-AMC substrate; for HDAC inhibition (%): compound at 100 µM; for IC50: read-out: IC50 values, HeLa nuclear extract
Description: With these N^ɛ-acetyl lysine derivatives in hand (schemes 1–3), we then did the pilot screening for general HDAC inhibitory activity at a compound's concentration of 100 µM. All tested compounds were subjected to the inhibition assay against the HDAC deacetylation reaction by using a HeLa nuclear extract as a source of HDACs and BOC-Ac-Lys-AMC as a substrate.
HDACS inhibition assay in vitro
In vitro HDACs inhibition assays were conducted as previously described. In brief, 4 μL of […]
(1μL), then fluorogenic substrate Boc-Lys(acetyl)-AMC (100 μM) and Buffer A (50 mM Tis-HCl pH=8.0, 150 mM NaCl, 30 mM KCl, 10 mM MgCl2) were added. After incubation at 37℃ for 1h, […]
And then incubation at 37℃ for 1h, the mixture was stopped by the addition of 50 μL of Buffer B (200mM HCl/300 mM Acetic acid), fluorescence intensity was measured using a microplate reader at excitation and emission wavelengths of 360 nm and 460 nm. The inhibition ratios were calculated from the fluorescence intensity readings of tested wells relative to those of control wells, […]
regression analysis of the concentration/inhibition data. All experiments were done in triplicate. […]

A549 cells = test: MTS cell proliferation assay, A549; type: cell-based, human
Description: (§1) Because of the great anti-tumour potential of HDAC inhibitors, we did the antiproliferative evaluation of 18c against K562 cells, A549 cells and HepG2 cells using MTS assay as previously described. […]
(§2) The rate of cell survival under the action of test substances was evaluated by an improved MTS assay as previously described. In brief, A549 (5000 cells / well) , HepG2 (5000 cells / well), HEK293 (5000 cells / well) and K562 (1 ×10^4 cells/well) cell lines were seeded into 96-well plates in 100 µL medium. After overnight incubation, each well was added with different […]
(§3) 48 hours 5ul of MTS reagent solution was added into each well and the cells were incubated for another 4 hours at 37℃ under 5% CO2 environment. The absorbance was measured at 490 nm in […]
(§4) a Microplate to determine the cell viability. The absorbance was directly proportional to the number of viable cells. All experiments were done in triplicate. […]
(§5) calculate and compare their selective index. […]
(§6) Unbound antibodies

HEK293 = test: MTS cell proliferation assay, HEK293 (non-cancerous kidney cell); type: cell-based; conditions: Homo sapiens, HEK293; MTS assay, 48 hours; normal cells
Description: as §1, §2, §3, §4, §5, §6

K562 cells = test: MTS cell proliferation assay, K562; type: cell-based, human
Description: as §1, §2, §3, §4, §5, §6

HepG2 cells = test: MTS cell proliferation assay, HepG2; type: cell-based, human
Description: as §1, §2, §3, §4, §5, §6

HDAC8 = molecular target: T1, HDAC8 (Homo sapiens, UniProt Q9BY41); test: HDAC subtype selectivity assay with subtype substrate, HDAC8; type: biochemical; conditions: read-out: HDAC Inhibition (%) HDAC8
T1 construct: Hela nuclear extract; endogenous in cells; host or cells: HeLa nuclear extract
T1 sequence (Q9BY41 1-377): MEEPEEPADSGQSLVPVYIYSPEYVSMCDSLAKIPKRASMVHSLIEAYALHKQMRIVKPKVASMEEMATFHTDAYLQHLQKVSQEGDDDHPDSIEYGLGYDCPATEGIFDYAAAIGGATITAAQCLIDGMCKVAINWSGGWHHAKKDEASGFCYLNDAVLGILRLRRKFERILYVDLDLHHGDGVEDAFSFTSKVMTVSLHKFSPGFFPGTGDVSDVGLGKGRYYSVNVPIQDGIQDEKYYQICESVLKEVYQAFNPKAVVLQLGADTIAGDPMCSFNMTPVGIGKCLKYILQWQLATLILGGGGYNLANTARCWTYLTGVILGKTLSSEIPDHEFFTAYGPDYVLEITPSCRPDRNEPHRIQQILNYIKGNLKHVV

[2] = Homo sapiens, MTS assay, 48 hours

Structure (SMILES)	HDAC inhibition (%) [1]	further results
O=C(O)CCC(=O)NCCCC[C@H](NC(=O)OCc1ccccc1)C(=O)Nc1ccccc1 [Compound 9]	37.5 ± 0.6%	
O=C(O)/C=C/C(=O)NCCCC[C@H](NC(=O)OCc1ccccc1)C(=O)Nc1ccccc1 [Compound 10]	38.7 ± 1.0%	
O=C(CCC(=O)NCCCC[C@H](NC(=O)OCc1ccccc1)C(=O)Nc1ccccc1)NO [Compound 11]	86.0 ± 3.0%	IC50 [1]: 25.4 ± 1.35 µM
Nc1ccccc1NC(=O)CCC(=O)NCCCC[C@H](NC(=O)OCc1ccccc1)C(=O)Nc1ccccc1 [Compound 12]	30.7 ± 3.7%	
O=C(/C=C/C(=O)NCCCC[C@H](NC(=O)OCc1ccccc1)C(=O)Nc1ccccc1)NO [Compound 13]	39.3 ± 3.1%	
O=C(N[C@@H](CCCCNC(=O)c1cccnc1)C(=O)Nc1ccccc1)OCc1ccccc1 [Compound 14a]	39.6 ± 0.4%	
Cc1ccc(C(=O)NCCCC[C@H](NC(=O)OCc2ccccc2)C(=O)Nc2ccccc2)cn1 [Compound 14b]	39.2 ± 0.8%	
O=C(/C=C/c1cccnc1)NCCCC[C@H](NC(=O)OCc1ccccc1)C(=O)Nc1ccccc1 [Compound 14c]	51.0 ± 1.0%	
O=C(N[C@@H](CCCCNC(=O)c1ccc[nH]1)C(=O)Nc1ccccc1)OCc1ccccc1 [Compound 14d]	48.4 ± 4.4%	
O=C(N[C@@H](CCCCNC(=O)c1ccco1)C(=O)Nc1ccccc1)OCc1ccccc1 [Compound 14e]	54.0 ± 1.9%	
O=C(N[C@@H](CCCCNC(=O)c1cccs1)C(=O)Nc1ccccc1)OCc1ccccc1 [Compound 14f]	45.0 ± 0.4%	
O=C(CS)NCCCC[C@H](NC(=O)OCc1ccccc1)C(=O)Nc1ccccc1 [Compound 14g]	10.3 ± 4.9%	
O=C(N[C@@H](CCCCNC(=O)c1cnc2ccccc2c1)C(=O)Nc1ccccc1)OCc1ccccc1 [Compound 14h]	28.3 ± 4.6%	
O=C(N[C@@H](CCCCNC(=O)c1ccc2ncccc2c1)C(=O)Nc1ccccc1)OCc1ccccc1 [Compound 14i]	36.8 ± 1.1%	
O=C(N[C@@H](CCCCNC(=O)c1c[nH]c2ccccc12)C(=O)Nc1ccccc1)OCc1ccccc1 [Compound 14j]	12.2 ± 6.5%	
O=C(N[C@@H](CCCCNC(=O)C1=CCc2ccccc21)C(=O)Nc1ccccc1)OCc1ccccc1 [Compound 14k]	22.4 ± 0.2%	
O=C(N[C@@H](CCCCNCc1c[nH]c2ccccc12)C(=O)Nc1ccccc1)OCc1ccccc1 [Compound 14l]	3.1 ± 0.5%	

Structure (SMILES)	HDAC inhibition (%) [1]	further results
O=C(N[C@@H](CCCCNC(=O)c1coc2ccccc12)C(=O)Nc1ccccc1)OCc1ccccc1 [Compound 14m]	14.3 ± 0.5%	
O=C(N[C@@H](CCCCNC(=O)c1csc2ccccc12)C(=O)Nc1ccccc1)OCc1ccccc1 [Compound 14n]	16.2 ± 2.0%	
O=C(CC1SC(=O)NC1=O)NCCCC[C@H](NC(=O)OCc1ccccc1)C(=O)Nc1ccccc1 (stereo partly drawn) [Compound 14o]	48.6 ± 0.5%	
CC(C)(C)OC(=O)N[C@@H](Cc1c[nH]c2ccccc12)C(=O)NCCCC[C@H](NC(=O)OCc1ccccc1)C(=O)Nc1ccccc1 [Compound 14p]	24.7 ± 2.8%	
N[C@@H](Cc1c[nH]c2ccccc12)C(=O)NCCCC[C@H](NC(=O)OCc1ccccc1)C(=O)Nc1ccccc1 [Compound 14q]	36.2 ± 0.4%	
COC(=O)CC(=O)NCCCC[C@H](NC(=O)OCc1ccccc1)C(=O)Nc1ccccc1 [Compound 15a]	19.4 ± 10.9%	
COC(=O)CCCCC(=O)NCCCC[C@H](NC(=O)OCc1ccccc1)C(=O)Nc1ccccc1 [Compound 15b]	2.9 ± 0.8%	
COC(=O)CCCCCCC(=O)NCCCC[C@H](NC(=O)OCc1ccccc1)C(=O)Nc1ccccc1 [Compound 15c]	7.1 ± 0.3%	
O=C(O)CC(=O)NCCCC[C@H](NC(=O)OCc1ccccc1)C(=O)Nc1ccccc1 [Compound 16a]	4.0 ± 1.7%	
O=C(O)CCCCC(=O)NCCCC[C@H](NC(=O)OCc1ccccc1)C(=O)Nc1ccccc1 [Compound 16b]	4.3 ± 0.5%	
O=C(O)CCCCCCC(=O)NCCCC[C@H](NC(=O)OCc1ccccc1)C(=O)Nc1ccccc1 [Compound 16c]	1.1 ± 0.4%	antiproliferative activity (A549 cells; 500 µM, MTS): no obvious antiproliferative activities; IC50 (A549 cells; [2]): > 500 µM; IC50 (HEK293): > 500 µM; antiproliferative activity (K562 cells; 500 µM, MTS): no obvious antiproliferative activities; IC50 (K562 cells; [2]): > 500 µM; antiproliferative activity (HepG2 cells; 500 µM, MTS): no obvious antiproliferative activities; IC50 (HepG2 cells; [2]): > 500 µM
Nc1ccccc1NC(=O)CC(=O)NCCCC[C@H](NC(=O)OCc1ccccc1)C(=O)Nc1ccccc1 [Compound 17a]	7.0 ± 0.4%	
Nc1ccccc1NC(=O)CCCCC(=O)NCCCC[C@H](NC(=O)OCc1ccccc1)C(=O)Nc1ccccc1 [Compound 17b]	69.3 ± 3.4%	
Nc1ccccc1NC(=O)CCCCCCC(=O)NCCCC[C@H](NC(=O)OCc1ccccc1)C(=O)Nc1ccccc1 [Compound 17c]	50.6 ± 6.9%	
O=C(CCCCC(=O)NCCCC[C@H](NC(=O)OCc1ccccc1)C(=O)Nc1ccccc1)NO [Compound 18b]	99.9 ± 0.9%	IC50 [1]: 10.4 ± 3.86 µM
O=C(CCCCCCC(=O)Nc1ccccc1)NO [SAHA (1), Vorinostat, reference compound]		inhibition at 1 µM (HDAC8): 41.19 ± 0.18%
